# In PubChem BioAssay AID280 (DTP/NCI, 2004):
# Where “and” joins values, the source holds several entries; their conditions need not be identical. Equal values may be shown once. Inconclusive results and toxic doses are left out.
# Test system: nude mice, LOX melanoma ip, survival T/C
# Assay: NCI In Vivo Anticancer Drug Screen. Data for tumor model Human Amelanotic Melanoma (LOX) (intraperitoneal) in NU/NU BALB/C (nude) mice
# Conditions: endpoint: median survival time, schedule: Q04DX003 (ip), higher = longer survival
# Experimental: The antitumor activity of compounds was measured in mice bearing transplantable tumors. Survival or tumor size were measured and the results are expressed as the measurement made in the treated group (T) divided by the measurement made in the vehicle treated control group (C). The tumor model used in this assay is Human Amelanotic Melanoma (LOX) (intraperitoneal) in NU/NU BALB/C (nude) mice
# [1] = dose: 50.0 mg/kg/injection, vehicle: saline with Tween-80
# [2] = dose: 100.0 mg/kg/injection, vehicle: saline with Tween-80
# [3] = dose: 200.0 mg/kg/injection, vehicle: saline with Tween-80
# [4] = dose: 400.0 mg/kg/injection, vehicle: saline with Tween-80
# [5] = dose: 800.0 mg/kg/injection, vehicle: saline with Tween-80
# [6] = dose: 6.25 mg/kg/injection, vehicle: saline with Tween-80
# [7] = dose: 12.5 mg/kg/injection, vehicle: saline with Tween-80
# [8] = dose: 25.0 mg/kg/injection, vehicle: saline with Tween-80
smiles,measurement,setting,value
CN(C)CCC(=O)C(=Cc1ccc(O)cc1)C(=O)CCN(C)C,T/C,"dose: 18.75 mg/kg/injection, vehicle: saline",100 % of control
same,T/C,"dose: 37.5 mg/kg/injection, vehicle: saline",101 % of control
same,T/C,"dose: 75.0 mg/kg/injection, vehicle: saline",112 % of control
same,T/C,"dose: 150.0 mg/kg/injection, vehicle: saline",107 % of control
same,T/C,"dose: 300.0 mg/kg/injection, vehicle: saline",103 % of control
CCCCCNc1ncnc2c(C)[nH]nc12,T/C,"dose: 18.75 mg/kg/injection, vehicle: Klucel (hydroxypropylcellulose) (HPC)",103 % of control
same,T/C,"dose: 37.5 mg/kg/injection, vehicle: Klucel (hydroxypropylcellulose) (HPC)",94 % of control
same,T/C,"dose: 75.0 mg/kg/injection, vehicle: Klucel (hydroxypropylcellulose) (HPC)",98 % of control
same,T/C,"dose: 150.0 mg/kg/injection, vehicle: Klucel (hydroxypropylcellulose) (HPC)",94 % of control
COc1cccc2c1C(=O)c1c(O)c3c(c(O)c1C2=O)C[C@](O)(C(=O)CO)CC3OC1CC(N)C(OC2CCCCO2)C(C)O1 (some centres undefined),T/C,"dose: 0.94 mg/kg/injection, vehicle: water",122 % of control
same,T/C,"dose: 7.5 mg/kg/injection, vehicle: water",160 % of control
same,T/C,"dose: 15.0 mg/kg/injection, vehicle: water",150 % of control
NC(=O)c1[nH]cnc1O,T/C,[1],95 % of control and 98 % of control
same,T/C,[2],116 % of control and 100 % of control
same,T/C,[3],104 % of control and 111 % of control
same,T/C,[4],96 % of control
same,T/C,[5],88 % of control
COc1cc(C2=NCCc3cc4c(cc32)OCO4)cc(OC)c1OC,T/C,"dose: 18.75 mg/kg/injection, vehicle: saline + alcohol",114 % of control
same,T/C,"dose: 37.5 mg/kg/injection, vehicle: saline + alcohol",115 % of control
same,T/C,"dose: 75.0 mg/kg/injection, vehicle: saline + alcohol",110 % of control
same,T/C,"dose: 150.0 mg/kg/injection, vehicle: saline + alcohol",115 % of control
CN1COc2c(n(C)c(=O)[nH]c2=O)C1,T/C,"dose: 50.0 mg/kg/injection, vehicle: saline",96 % of control
same,T/C,"dose: 50.0 mg/kg/injection, vehicle: suspension in saline",102 % of control
same,T/C,"dose: 100.0 mg/kg/injection, vehicle: saline",91 % of control
same,T/C,"dose: 100.0 mg/kg/injection, vehicle: suspension in saline",104 % of control
same,T/C,"dose: 200.0 mg/kg/injection, vehicle: saline",104 % of control
same,T/C,"dose: 200.0 mg/kg/injection, vehicle: suspension in saline",122 % of control
same,T/C,"dose: 400.0 mg/kg/injection, vehicle: saline",110 % of control
same,T/C,"dose: 400.0 mg/kg/injection, vehicle: suspension in saline",108 % of control
same,T/C,"dose: 800.0 mg/kg/injection, vehicle: saline",120 % of control
same,T/C,"dose: 800.0 mg/kg/injection, vehicle: suspension in saline",108 % of control
NC(=O)CCC(N)C(=O)O (centres undefined),T/C,"dose: 75.0 mg/kg/injection, vehicle: suspension in saline",101 % of control
same,T/C,"dose: 150.0 mg/kg/injection, vehicle: suspension in saline",90 % of control
same,T/C,"dose: 300.0 mg/kg/injection, vehicle: suspension in saline",95 % of control
same,T/C,"dose: 600.0 mg/kg/injection, vehicle: suspension in saline",102 % of control
same,T/C,"dose: 1200.0 mg/kg/injection, vehicle: suspension in saline",101 % of control
Cc1noc2nc(-c3ccccc3)cc(N3CCN(C)CC3)c12,T/C,"dose: 25.0 mg/kg/injection, vehicle: other",97 % of control
same,T/C,"dose: 54.0 mg/kg/injection, vehicle: other",97 % of control
same,T/C,"dose: 100.0 mg/kg/injection, vehicle: other",97 % of control
same,T/C,"dose: 200.0 mg/kg/injection, vehicle: other",93 % of control
same,T/C,"dose: 400.0 mg/kg/injection, vehicle: other",98 % of control
CC(=O)C[n+]1ccccc1Sc1ccc(Cl)cc1,T/C,"dose: 1.5 mg/kg/injection, vehicle: saline with Tween-80",95 % of control
same,T/C,"dose: 3.0 mg/kg/injection, vehicle: saline with Tween-80",94 % of control
same,T/C,"dose: 6.0 mg/kg/injection, vehicle: saline with Tween-80",99 % of control
same,T/C,"dose: 12.0 mg/kg/injection, vehicle: saline with Tween-80",96 % of control
same,T/C,"dose: 24.0 mg/kg/injection, vehicle: saline with Tween-80",95 % of control
O=[N+]([O-])c1ccc(N(CCO)CCO)c2c1no[n+]2[O-],T/C,[6],99 % of control
same,T/C,[7],106 % of control
same,T/C,[8],111 % of control
same,T/C,[1],93 % of control
same,T/C,[2],115 % of control
N#Cc1c(-c2ccc(F)cc2)c(-c2ccc(F)cc2)nn(CCO)c1=O,T/C,"dose: 12.5 mg/kg/injection, vehicle: distilled water + Tween-80",98 % of control
same,T/C,"dose: 25.0 mg/kg/injection, vehicle: distilled water + Tween-80",111 % of control
same,T/C,"dose: 50.0 mg/kg/injection, vehicle: distilled water + Tween-80",115 % of control
same,T/C,"dose: 72.0 mg/kg/injection, vehicle: distilled water + Tween-80",110 % of control
same,T/C,"dose: 100.0 mg/kg/injection, vehicle: distilled water + Tween-80",122 % of control
same,T/C,"dose: 120.0 mg/kg/injection, vehicle: distilled water + Tween-80",124 % of control
same,T/C,"dose: 200.0 mg/kg/injection, vehicle: distilled water + Tween-80",120 % of control
same,T/C,"dose: 333.33 mg/kg/injection, vehicle: distilled water + Tween-80",166 % of control
same,T/C,"dose: 555.55 mg/kg/injection, vehicle: distilled water + Tween-80",212 % of control
BrC[P+](CBr)(CBr)CBr,T/C,[1],113 % of control
same,T/C,[2],121 % of control
same,T/C,[3],105 % of control
same,T/C,[4],103 % of control
same,T/C,[5],119 % of control
O=NN(CCCl)C(=O)Oc1ccc(OC(=O)N(CCCl)N=O)cc1,T/C,"dose: 20.0 mg/kg/injection, vehicle: Klucel (hydroxypropylcellulose) (HPC)",118 % of control
same,T/C,"dose: 40.0 mg/kg/injection, vehicle: Klucel (hydroxypropylcellulose) (HPC)",94 % of control
O=C(Nc1cccc(O)c1)C(Cl)=C(Cl)Cl,T/C,"dose: 6.25 mg/kg/injection, vehicle: DMSO",96 % of control
same,T/C,"dose: 12.5 mg/kg/injection, vehicle: DMSO",91 % of control
same,T/C,"dose: 25.0 mg/kg/injection, vehicle: DMSO",95 % of control
same,T/C,"dose: 50.0 mg/kg/injection, vehicle: DMSO",94 % of control
CCOC(=O)C(N)C[S][Sn]([CH3])([CH3])[Cl] (centres undefined),T/C,[7],99 % of control
same,T/C,[8],101 % of control
same,T/C,[1],104 % of control
C/C(=N\NC(=S)N1CC2CCC(CC2)C1)c1cccc(C)n1,T/C,[6],105 % of control
same,T/C,[7],109 % of control
same,T/C,[8],103 % of control
same,T/C,[1],120 % of control
same,T/C,[2],109 % of control
CNC(=O)/C=C/C1=CN2C(=O)c3ccc(C)c(O)c3NC(OC)C2C1 (centres undefined),T/C,"dose: 200.0 micrograms/kg/injection, vehicle: saline",121 % of control
C=CC1(C)CC(=O)C2(O)C(C)(O1)C(OC(C)=O)C(O)C1C(C)(C)CCC(O)C12C (centres undefined),T/C,"dose: 8.0 mg/kg/injection, vehicle: DMSO",102 % of control
same,T/C,"dose: 16.0 mg/kg/injection, vehicle: DMSO",103 % of control
same,T/C,"dose: 32.0 mg/kg/injection, vehicle: DMSO",102 % of control
same,T/C,"dose: 64.0 mg/kg/injection, vehicle: DMSO",91 % of control
